pIC50: −log10 of the molar value. Read-outs that look alike come from different tables or passages of the source. *1 amine or outer side, *2 acyl side, *3 side chain or, on linkers, in order; H or OH if unused. Where a SMILES comes first, the peptide text is derived from it. Side-chain parts run from the residue outwards. [ ]: non-standard residue; d: D form. The star is where a group is joined. Ethylenediamine = C(CN[*:2])N[*:1]; Hyp = O=C(O)[C@@H]1C[C@@H](O)CN1; Phg = N[C@H](C(=O)O)c1ccccc1; CO = O=C([*:1])[*:2]; Bn = c1ccc(C*)cc1
What was measured:
hSSTR1 = biological target: T1, hSSTR1 (Homo sapiens, UniProt P30872); test: Binding assay, displacement of 3-[125I]iodotyrosyl11 Somatostatin-14; details: recombinant human receptor, cell membranes; 60 min at 25° C.
T1 construct: expressed in transfected cells
Protocol: (§1) The binding assays were carried out, as is explained below, by using preparations of recombinant human receptors, hSSTR1, hSSTR2, hSSTR3 and hSSTR5, obtained from cell membranes (for example CHO) transfected according to standard methods.
(§2) The membranes are incubated in duplicate for 60 min. at 25° C. with 3-[125I]iodotyrosyl11Somatostatin-14 (Amersham, IM161, 2000 Ci/mmol) as radioligand and with increasing concentrations of the compound under examination, in 25 mM Hepes (pH 7.4) buffer, containing 5 mM MgCl2, 1 mM CaCl2, 10 μg/ml of Saponin, 0.5% BSA. The incubation is terminated by means of filtration with a Filtermate Harvester (Perkin Elmer) through GF/B filters, which are then washed 6 times with buffer (25 mM Hepes pH 7.4, 5 mM MgCl2, 1 mM CaCl2). The radioactivity of the filters is measured in a TopCount™ or MicroBeta™ reader for 1 min/well after having added the Microscint 20 liquid scintillation (Packard) and incubated for 15 min. in an orbital stirrer. The results are expressed as specific binding percentage of the radio-marked ligand, in the presence of increasing concentrations of the compound under examination. The IC50 values were calculated by using the “GraphPad Prism” software (IC50=concentration of compound necessary for obtaining half of the maximum inhibition, in the competitive binding test described above).

hSSTR2 = biological target: T2, hSSTR2 (Homo sapiens, UniProt P30874); test: as above; details: cell membranes, 60 min at 25° C.
T2 construct: expressed in transfected cells
Protocol: as §1, §2

hSSTR3 = biological target: T3, hSSTR3 (Homo sapiens, UniProt P32745); test: as above; details: cell membranes, 60 min at 25° C.
T3 construct: expressed in transfected cells
Protocol: as §1, §2

hSSTR5 = biological target: T4, hSSTR5 (Homo sapiens, UniProt P35346); test: as above; details: cell membranes, 60 min at 25° C.
T4 construct: expressed in transfected cells
Protocol: as §1, §2

[1] = Pharmacokinetic profile in rats, subcutaneous; format: in vivo; details: rat, sc, male rats, 1 mg/kg, plasma; for half-life: read-out: t½ (converted)
Protocol: Assay for the Pharmacokinetic Profile
The compounds of the invention also show, in rats, a very favourable pharmacokinetic profile. The pharmacokinetic profile was measured by administering the compounds to male rates, subcutaneously, at the dose of 1 mg/kg (CD, Sprague Dawley; 200-250 g). Blood samples were collected, at different times, up to 72 hours after the administration. The concentrations of the compound under examination were measured in the separated plasma samples, by means of an LC-MS/MS analysis method and the values were processed according to a non-compartmental model using the software “Kinetica”. In the following table, the main pharmacokinetic parameters obtained with the compound of example 1 are reported, compared with those obtained with PASIREOTIDE, another stable analogue of somatostatin, currently in clinical development phase (PASIREOTIDE was prepared by following the process described in WO2002010192).

rat pituitary cells = details: 3 h
[2] = comparison value, source and conditions not stated; cited from earlier work
[3] = test system: release of GH stimulated by Nembutal; test: In vivo inhibition of the GH production stimulated by barbiturates (Nembutal); set-up: species or system rat; details: male rats, subcutaneous
Protocol: Assay for the In Vivo Inhibition of the GH Production, Stimulated by Barbiturates
The compounds are administrated subcutaneously, at different doses, in male rats (CD, Harlan Italy). Blood samples are collected, at different times, one hour after the animals were anesthetised by means of intraperitoneal administration of Nembutal (60 mg/kg); the hormone levels are measured by means of the ELISA test. In the animals treated with the compounds of the invention, at doses from 5 to 250 μg/kg, there is a decrease of the produced GH levels.

[4] = recombinant human receptor, read-out: IC50 (nM) hSSTR2
[5] = recombinant human receptor, read-out: IC50 (nM) hSSTR3
[6] = recombinant human receptor, read-out: IC50 (nM) hSSTR5

T3 sequence (P32745 whole entry): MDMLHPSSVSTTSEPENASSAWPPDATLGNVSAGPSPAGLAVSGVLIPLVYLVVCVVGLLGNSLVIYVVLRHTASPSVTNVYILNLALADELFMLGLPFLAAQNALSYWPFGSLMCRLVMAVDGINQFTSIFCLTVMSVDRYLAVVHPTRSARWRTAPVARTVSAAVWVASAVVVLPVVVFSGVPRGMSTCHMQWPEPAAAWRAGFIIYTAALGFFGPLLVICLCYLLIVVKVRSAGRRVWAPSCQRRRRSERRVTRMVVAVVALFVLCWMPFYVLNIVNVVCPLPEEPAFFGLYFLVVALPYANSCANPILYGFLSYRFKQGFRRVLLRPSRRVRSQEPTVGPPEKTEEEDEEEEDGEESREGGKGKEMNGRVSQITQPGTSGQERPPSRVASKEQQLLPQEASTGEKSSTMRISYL
T2 sequence (P30874 whole entry): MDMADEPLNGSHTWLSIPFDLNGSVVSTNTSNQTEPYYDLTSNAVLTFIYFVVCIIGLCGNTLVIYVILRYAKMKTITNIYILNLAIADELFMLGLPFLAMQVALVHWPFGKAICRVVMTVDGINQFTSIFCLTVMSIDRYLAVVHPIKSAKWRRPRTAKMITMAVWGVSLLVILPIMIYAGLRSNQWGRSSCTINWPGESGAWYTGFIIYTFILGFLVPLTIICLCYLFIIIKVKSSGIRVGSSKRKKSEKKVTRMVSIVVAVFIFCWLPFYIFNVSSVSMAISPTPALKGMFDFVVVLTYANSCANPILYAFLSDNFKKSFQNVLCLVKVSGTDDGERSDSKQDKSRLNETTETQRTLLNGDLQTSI
T4 sequence (P35346 whole entry): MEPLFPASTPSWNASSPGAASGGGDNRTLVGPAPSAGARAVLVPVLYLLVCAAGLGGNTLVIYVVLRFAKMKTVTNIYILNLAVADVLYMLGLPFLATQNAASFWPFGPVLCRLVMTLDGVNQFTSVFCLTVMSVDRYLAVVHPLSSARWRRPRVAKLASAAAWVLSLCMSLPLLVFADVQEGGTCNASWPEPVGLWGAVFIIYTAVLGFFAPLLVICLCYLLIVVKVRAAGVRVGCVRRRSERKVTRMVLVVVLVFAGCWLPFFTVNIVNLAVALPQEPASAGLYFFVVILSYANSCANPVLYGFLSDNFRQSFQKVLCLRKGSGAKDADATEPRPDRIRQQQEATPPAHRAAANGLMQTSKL
T1 sequence (P30872 whole entry): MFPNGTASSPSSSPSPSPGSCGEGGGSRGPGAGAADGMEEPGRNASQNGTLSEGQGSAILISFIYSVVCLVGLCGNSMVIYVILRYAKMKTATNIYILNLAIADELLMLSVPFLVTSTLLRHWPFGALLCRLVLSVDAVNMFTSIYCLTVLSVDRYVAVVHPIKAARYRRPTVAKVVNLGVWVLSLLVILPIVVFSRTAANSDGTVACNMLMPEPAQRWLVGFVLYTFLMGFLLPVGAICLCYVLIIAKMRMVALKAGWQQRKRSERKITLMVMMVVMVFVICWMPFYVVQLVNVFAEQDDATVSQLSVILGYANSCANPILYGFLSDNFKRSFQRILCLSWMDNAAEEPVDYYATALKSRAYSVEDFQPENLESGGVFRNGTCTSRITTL

Compound | IC50 (hSSTR1) | IC50 (hSSTR2; [4]) | IC50 (hSSTR3; [5]) | IC50 (hSSTR5; [6]) | other results
COc1cc2cccc(OC)c2cc1CC1NC(=O)[C@H](Cc2ccccc2)NC(=O)[C@@H]2C[C@@H](OC(=O)NCCN)CN2C(=O)[C@H](Cc2ccccc2)NC(=O)[C@H](Cc2ccc(OCc3ccccc3)cc2)NC(=O)[C@H](CCCCN)NC1=O (single isomer, unassigned) [Example 5, cyclo[Tyr(Bn)-Phe-Pro(4-OCONH(CH2)2NH2)-Phe-(D,L)3,8MNal-Lys]] | 10.8 nM | 9.3 nM | 0.31 nM | 0.42 nM | AUC ([1]; CD, Sprague Dawley): 2880 ng·h/mL; AUC(0-t) ([1]; CD, Sprague Dawley): 2730 ng·h/mL; Cmax ([1]; CD, Sprague Dawley): 224 ng/mL; MRT ([1]; CD, Sprague Dawley): 19 h; Tmax ([1]; CD, Sprague Dawley): 4 h; half-life ([1]; CD, Sprague Dawley): 31.3 h; pIC50 (rat pituitary cells): 8.89
CNCCNC(=O)O[C@@H]1C[C@H]2C(=O)N[C@@H](Cc3ccccc3)C(=O)NC(Cc3cc4c(OC)cccc4cc3OC)C(=O)N[C@@H](CCCCN)C(=O)N[C@@H](Cc3ccc(OCc4ccccc4)cc3)C(=O)N[C@@H](Cc3ccccc3)C(=O)N2C1 (single isomer, unassigned) [Example 7, cyclo[Tyr(Bn)-Phe-Pro (4-OCONH(CH2)2NHCH3)-Phe-(D,L)3,8MNal-Lys]] | 5.8 nM | 9.2 nM | 1.33 nM | 0.97 nM | 
COc1cc2cccc(OC)c2cc1CC1NC(=O)[C@H](Cc2ccccc2)NC(=O)[C@@H]2C[C@@H](OC(=O)NCCN)CN2C(=O)[C@H](Cc2ccccc2)NC(=O)[C@H](COCc2ccccc2)NC(=O)[C@H](CCCCN)NC1=O (single isomer, unassigned) [Example 15, cyclo[Ser(Bn)-Phe-Pro(4-OCONH(CH2)2NH2)-Phe-(D,L)3,8MNal-Lys]] | 1 nM | 7 nM | 1.8 nM | 1.62 nM | 
COc1cc2cccc(OC)c2cc1CC1NC(=O)[C@H](Cc2ccc(O)cc2)NC(=O)[C@@H]2C[C@@H](OC(=O)NCCN)CN2C(=O)[C@H](Cc2ccccc2)NC(=O)[C@H](Cc2ccc(OCc3ccccc3)cc2)NC(=O)[C@H](CCCCN)NC1=O (stereo partly shown) [Example 14, cyclo[Tyr(Bn)-Phe-Pro(4-OCONH(CH2)2NH2)-Tyr-(D,L)3,8MNal-Lys]] |  |  |  |  | IC50 (hSSTR2; IC50 (nM) hSSTR2, recombinant human receptor): 1.8 nM; IC50 (hSSTR3; IC50 (nM) hSSTR3, recombinant human receptor): 0.35 nM; IC50 (hSSTR5; IC50 (nM) hSSTR5, recombinant human receptor): 0.36 nM
C[C@@H](O)[C@@H]1NC(=O)[C@H](CCCCN)NC(=O)[C@@H](Cc2c[nH]c3ccccc23)NC(=O)[C@H](Cc2ccccc2)NC(=O)[C@@H](NC(=O)[C@H](N)Cc2ccccc2)CSSC[C@@H](C(=O)N[C@H](CO)[C@@H](C)O)NC1=O [OCTREOTIDE] |  |  |  |  | t½ [2]: about 2 hours
NCCCC[C@@H]1NC(=O)[C@@H](Cc2c[nH]c3ccccc23)NC(=O)[C@H](c2ccccc2)NC(=O)[C@@H]2C[C@@H](OC(=O)NCCN)CN2C(=O)[C@H](Cc2ccccc2)NC(=O)[C@H](Cc2ccc(OCc3ccccc3)cc2)NC1=O [PASIREOTIDE, reference compound] (cyclo([Hyp]([CO-Ethylenediamine])[Phg][dW]KY(Bn)F)) |  |  |  |  | AUC ([1]; Sprague Dawley (CD)): 2800 ng·h/mL; AUC(0-t) ([1]; Sprague Dawley (CD)): 2780 ng·h/mL; Cmax ([1]; Sprague Dawley (CD)): 668 ng/mL; MRT ([1]; Sprague Dawley (CD)): 4.87 h; Tmax ([1]; Sprague Dawley (CD)): 2 h; half-life ([1]; Sprague Dawley (CD)): 24.4 h
Fmoc-(D/L) 3-(3,8-dimethoxy-Naphthalene-2-yl)-Alanine [Example 1] |  |  |  |  | reduction of the release of GH ([3]; 5 μg/kg, six hours after the administration): 55%; reduction of GH, duration ([3]; 125 μg/kg, 24 hours after the administration): still measurable

More lines, main results first:

IC50 (hSSTR1) | IC50 (hSSTR2; [4]) | IC50 (hSSTR3; [5]) | IC50 (hSSTR5; [6]) | Compound | other results
10 nM | 25.8 nM | 0.52 nM | 0.64 nM | COc1ccc(OC)c(CCC2NC(=O)[C@H](Cc3ccccc3)NC(=O)[C@@H]3C[C@@H](OC(=O)NCCN)CN3C(=O)[C@H](Cc3ccccc3)NC(=O)[C@H](Cc3ccc(OCc4ccccc4)cc3)NC(=O)[C@H](CCCCN)NC2=O)c1 (single isomer, unassigned) [Example 6, cyclo[Tyr(Bn)-Phe-Pro(4-OCONH(CH2)2NH2)-Phe-(D,L)2,5 MhPhe-Lys]] | 
19.1 nM | 26.6 nM | 2.92 nM | 9.78 nM | COc1cc(CC2NC(=O)[C@H](Cc3ccccc3)NC(=O)[C@@H]3C[C@@H](OC(=O)NCCN)CN3C(=O)[C@H](Cc3ccccc3)NC(=O)[C@H](Cc3ccc(OCc4ccccc4)cc3)NC(=O)[C@H](CCCCN)NC2=O)c(OC)c2ccccc12 (single isomer, unassigned) [Example 8, cyclo[Tyr(Bn)-Phe-Pro(4-OCONH(CH2)2NH2)-Phe-(D,L)1,4-MNal-Lys]] | 
32.4 nM | 9.9 nM | 2.34 nM | 1.9 nM | COc1cc(CC2NC(=O)[C@H](Cc3ccccc3)NC(=O)[C@@H]3C[C@@H](OC(=O)NCCN)CN3C(=O)[C@H](Cc3ccccc3)NC(=O)[C@H](Cc3ccc(OCc4ccccc4)cc3)NC(=O)[C@H](CCCCN)NC2=O)c(OC)c2ccccc12 (single isomer, unassigned) [Example 9, cyclo[Tyr(Bn)-Phe-Pro(4-OCONH(CH2)2NH2)-Phe-(D,L)1,4-MNal-Lys]] | 
